In patent US5496856A, “Aspartame for its application as a therapeutically active substance” (priority 1993, dated 1996):
“Also recorded” adds a separate entry of the source. Peptide text beside a SMILES is read from it.

Legend:
[1] = Urine proteins in rats treated with ochratoxin A; assay type: in vivo; conditions: aspartame 25 mg/kg + ochratoxin A 289 μg/kg, 3 weeks
Experimental: (§1) The animals used in this experiment are male rats of the Wistar strain weighing 160±10 g.
(§2) The aspartame is administered by gavage, at the same time as the ochratoxin A, every 48 hours for 3 weeks.
(§3) Group I: control rats (blanks)
(§4) Group II: control rats treated with 0.1 M NaHCO3, pH 7.4
(§5) Group III: rats treated with ochratoxin A (289 μg/kg)
(§6) Group IV: rats treated with ochratoxin A (289 μg/kg)+aspartame (25 mg/kg).
(§7) The control and treated rats are placed in a metabolic cage for 24 hours for urine sampling and then sacrificed.

human plasma proteins [2] = experiment: OTA binding to human plasma proteins, condition (ii): OTA with or without aspartame in lower compartment; assay type: in vitro ADME
Experimental: (§8) A further study was performed in order to determine the effect of aspartame on OTA binding on human plasma proteins in vitro.
(§9) An in-vitro study was performed on plasma samples obtained from healthy human volunteers, from a French blood bank (Centre de transfusion sanguine in Bordeaux), using citrate as anticoagulant. Blood samples were centrifuged at 1800 g for 30 minutes. This pooled human plasma contained 41±3 g of proteins per liter.
(§10) Static diffusion cells (polypropylene, homemade according to the model provided by Nalgene, USA) containing two compartments (upper and lower) separated by a dialysing membrane having a 10 000 D exclusion limit (Sigma Chemical, USA) were used. This membrane allows OTA and aspartame diffusion and not protein diffusion.
(§11) A human plasma sample was placed in the upper compartment and a medium (RPMI 1640, Sigma chemical, USA) in the lower one.
(§12) The plasma binding properties of OTA were evaluated under two different conditions:
(ii) The upper compartment contained human plasma proteins only and OTA (20, 100 and 500 μg/ml) was added into the lower compartment alone or concommitantly with 10 μg/ml aspartame.
(§13) OTA concentration in the upper compartment was determined by HPLC (Mobile phase: methanol, acetonitrile, acetic acid, sodium acetate 5 mM (300: 300: 400: 14 v/v/v/v); injection volume 50 μl; flow rate 1 ml/min; run time for one cycle: 10 min and fluorescence detection (excitation at 340 nm and emission at 465 nm).
(§14) Before extraction of OTA from the plasma, all the studied samples of plasma, which had already fixed OTA, were dialysed against free OTA RPMI medium for at least 15 minutes, one or several times, until no more OTA was found in the lower compartment.
(§15) The results obtained under condition (i) as defined hereinabove are reported in Table I, whereas the results obtained under condition (ii) are reported in Table II.
Under condition (ii) (Table II), the aspartame was put in the same compartment as OTA in the non-plasmatic compartment to mimic the stomach (the ration OTA/aspartame=1.5 to 36).

human plasma proteins [3] = experiment: OTA binding to human plasma proteins, condition (i): aspartame in upper (plasma) compartment; assay type: in vitro ADME
Experimental: as §8, §9, §10, §11, §12
(i) The aspartame at a concentration of 10 μg/ml was added in the upper compartment containing human plasma proteins before introducing OTA at three different concentrations (20, 100, and 500 μg/ml) in the lower compartment;
as §13, §14, §15

[4] = Serum and urine assays of ochratoxin (urinary elimination); assay type: in vivo, rats
Experimental: as §1, §2, §3, §4, §5, §6, §7

tubular cells = experiment: Urinary renal enzyme activities (LAP, PAL, LDH, γ-GT) in rats treated with ochratoxin A; assay type: in vivo; conditions: aspartame 25 mg/kg + ochratoxin A 289 μg/kg, 3 weeks
Experimental: as §1, §2, §3, §4, §5, §6, §7

glomerular filtration [5] = experiment: Serum and urine creatinine in ochratoxin A-treated rats; assay type: in vivo, male rats of the Wistar strain
Experimental: The animals used in this experiment are male rats of the Wistar strain weighing 160±10 g. The animals are classified in order of increasing weight and distributed randomly into 4 groups of 6 rats (homogeneous distribution by randomization).
An amount of ochratoxin A corresponding to 289 μg/kg of body weight is given to the rats by gavage every 48 hours for 3 weeks; the toxin is dissolved in 0.3 ml of a 0.1 M solution of NaHCO3, pH 7.4.

renal cells = experiment: Entry of ochratoxin into renal cells; conditions: ochratoxin A with aspartame
[6] = Toxic oxidative effects of ochratoxin A in vivo and in vitro
glomerular filtration [7] = conditions: mice
Experimental: Male mice of the Swiss strain weighing 32±2 g are distributed into cages in groups of 5. The animals are classified in order of increasing weight and distributed randomly into 4 groups of 5 mice (homogeneous distribution by randomization).
An amount of ochratoxin A corresponding to 289 μg/kg of body weight is given to the mice via an esophageal tube every 48 h for one week; the toxin is dissolved in 0.3 ml of 0.1M NaHCO3, pH 7.4.
0.3 ml of 0.1 M NaHCO3, pH 7.4, is given in the same way to the mice used as controls.
4 groups of 5 mice were studied.
Group I: control mice treated with 0.1 M NaHCO3, pH 7.4
Group II: mice treated with ochratoxin A (289 μg/kg)
Group III: mice treated with ochratoxin A (289 μg/kg)+aspartame (30 mg/kg)
Group IV: control mice treated with aspartame only.
The aspartame is administered in 0.3 ml of H2 O one hour after the last administration of ochratoxin A.
The mice are placed in a metabolic cage for 15 hours and then sacrificed.
The creatinine is assayed in the 15-hour urine and serum.

DNA = DNA adducts by postlabeling with ATP gamma 32P in organs (genotoxicity); assay type: in vivo, rats
Experimental: as §1, §2, §7
The organs of the same animals were used for extraction of the DNA, which was analyzed by the technique of postlabeling with ATP gamma 32P in order to evaluate the genotoxicity by the presence of adducts with DNA bases.

[8] = Plasma concentration of aspartame after oral administration; assay type: in vivo; conditions: within 24h, per os
[9] = OTA 20 μg/ml, 30 min, aspartame 10 μg/ml
[10] = OTA 20 μg/ml, 60 min, aspartame 10 μg/ml
[11] = OTA 20 μg/ml, 120 min, aspartame 10 μg/ml
[12] = OTA 100 μg/ml, 30 min, aspartame 10 μg/ml
[13] = OTA 100 μg/ml, 60 min, aspartame 10 μg/ml
[14] = OTA 100 μg/ml, 120 min, aspartame 10 μg/ml
[15] = OTA 500 μg/ml, 30 min, aspartame 10 μg/ml
[16] = OTA 500 μg/ml, 60 min, aspartame 10 μg/ml
[17] = OTA 500 μg/ml, 120 min, aspartame 10 μg/ml
[18] = rats, aspartame 25 mg/kg + ochratoxin A 289 μg/kg every 48 h, 3 weeks, gavage
[19] = aspartame 30 mg/kg one hour after last ochratoxin A

COC(=O)[C@H](Cc1ccccc1)NC(=O)[C@@H](N)CC(=O)O [Aspartame, methyl ester of L-aspartyl- L-phenylalanine] (H-Asp-Phe-OMe)
effect on the ochratoxin-induced increase in the level of urine proteins [1]: reduces the increase, induced by ochratoxin, in the level of urine proteins | Quantities of OTA bound to plasma proteins, OTA + Aspartame (Table II) (human plasma proteins [2]; [9]): 159 ± 13 ng/mL | Quantities of OTA bound to plasma proteins, OTA + Aspartame (Table II) (human plasma proteins [2]; [10]): 53 ± 6 ng/mL | Quantities of OTA bound to plasma proteins, OTA + Aspartame (Table II) (human plasma proteins [2]; [11]): 39 ± 4 ng/mL | Quantities of OTA bound to plasma proteins, OTA + Aspartame (Table II) (human plasma proteins [2]; [12]): 245 ± 15 ng/mL | Quantities of OTA bound to plasma proteins, OTA + Aspartame (Table II) (human plasma proteins [2]; [13]): 459 ± 27 ng/mL | Quantities of OTA bound to plasma proteins, OTA + Aspartame (Table II) (human plasma proteins [2]; [14]): 587 ± 38 ng/mL | Quantities of OTA bound to plasma proteins, OTA + Aspartame (Table II) (human plasma proteins [2]; [15]): 516 ± 19 ng/mL | Quantities of OTA bound to plasma proteins, OTA + Aspartame (Table II) (human plasma proteins [2]; [16]): 1127 ± 89 ng/mL | Quantities of OTA bound to plasma proteins, OTA + Aspartame (Table II) (human plasma proteins [2]; [17]): 1789 ± 56 ng/mL | efficiency in preventing the binding of OTA on human plasma proteins (human plasma proteins [2]; OTA in lower compartment (stomach), OTA as high as 20 μg/ml): more than 95% | prevention of the binding of OTA (human plasma proteins [2]; Table II, OTA 100 μg/ml, aspartame 10 μg/ml): 50% | efficiency in preventing OTA binding (in words) (human plasma proteins [2]; Table II, OTA 500 μg/ml, aspartame 10 μg/ml): no longer efficient | Quantities of OTA bound to plasma proteins, OTA + Aspartame (Table I) (human plasma proteins [3]; [9]): 157 ± 12 ng/mL | Quantities of OTA bound to plasma proteins, OTA + Aspartame (Table I) (human plasma proteins [3]; [10]): 97 ± 4 ng/mL | Quantities of OTA bound to plasma proteins, OTA + Aspartame (Table I) (human plasma proteins [3]; [11]): 15 ± 3 ng/mL | Quantities of OTA bound to plasma proteins, OTA + Aspartame (Table I) (human plasma proteins [3]; [12]): 193 ± 17 ng/mL | Quantities of OTA bound to plasma proteins, OTA + Aspartame (Table I) (human plasma proteins [3]; [13]): 74 ± 11 ng/mL | Quantities of OTA bound to plasma proteins, OTA + Aspartame (Table I) (human plasma proteins [3]; [14]): 55 ± 15 ng/mL | OTA available that is bound as compared to control without aspartame (human plasma proteins [3]; OTA 100 μg/ml, aspartame 10 μg/ml): 4.5% | Quantities of OTA bound to plasma proteins, OTA + Aspartame (Table I) (human plasma proteins [3]; [15]): 275 ± 41 ng/mL | Quantities of OTA bound to plasma proteins, OTA + Aspartame (Table I) (human plasma proteins [3]; [16]): 296 ± 45 ng/mL | Quantities of OTA bound to plasma proteins, OTA + Aspartame (Table I) (human plasma proteins [3]; [17]): 345 ± 51 ng/mL | OTA available that is bound to plasma proteins as compared to control without aspartame (human plasma proteins [3]; OTA 500 μg/ml, aspartame 10 μg/ml): 19.8% | dependence of efficiency in preventing OTA binding on OTA concentration (human plasma proteins [3]; OTA 20 to 500 μg/ml): inversely proportional to the concentrations of OTA | OTA available that is bound as compared to the control without aspartame (human plasma proteins [3]; Table I, OTA 20 μg/ml, aspartame 10 μg/ml): 2% | efficiency in preventing the binding of OTA on human plasma proteins (human plasma proteins [3]; Table I, OTA concentrations as high as 20 μg/ml, aspartame 10 μg/ml): about 98% | OTA bound (in words) (human plasma proteins [3]; aspartame 10 μg/ml, i.e. 10 mg/l): practically no OTA bound | efficiency in preventing the OTA binding on human plasma proteins (conclusion) (human plasma proteins [3]; normal conditions, OTA concentrations lower than 20 μg/ml): at least 95% | urinary elimination of ochratoxin ([4]; serum and urine assays, rats, aspartame 25 mg/kg + ochratoxin A, 3 weeks): very substantially favors urinary elimination of the ochratoxin A; also recorded: significantly increases the urinary elimination of ochratoxin | effect on metabolism and elimination of ochratoxin A ([4]; summary statement): slow down the metabolism and accelerate the elimination of ochratoxin A | effect on the increase in urinary enzymic activities caused by ochratoxin A (tubular cells): appreciably reduces the increase in the enzymic activities caused by ochratoxin A | urinary enzymic activities vs controls (tubular cells): not being significantly different from those of the controls | level of serum creatinine (glomerular filtration [5]; [18]): significant reduction in the level of serum creatinine | level of urine creatinine (glomerular filtration [5]; [18]): parallel increase in the level of urine creatinine, which is comparable to the control level | tubular and glomerular attacks caused by ochratoxin (glomerular filtration [5]; summary statement): protects the kidney from the tubular and glomerular attacks caused by ochratoxin | concentration/entry of ochratoxin in renal cells (renal cells): limiting the entry of ochratoxin into these cells; also recorded: reducing the concentration of ochratoxin in the renal cells | effect on toxic oxidative effects of ochratoxin A [6]: opposes the toxic oxidative effects of ochratoxin A in vivo and in vitro | effect on the increase in serum creatinine (glomerular filtration [7]; [19]): very markedly reduces the increase in serum creatinine | effect on urine creatinine (glomerular filtration [7]; [19]): increases the level of urine creatinine, which is similar to the control values | effects on serum creatinine and serum creatinine/urine creatinine ratio (glomerular filtration) (glomerular filtration [7]; aspartame 30 mg/kg with ochratoxin A 289 μg/kg): beneficial | DNA adducts in organs, aspartame and OTA (DNA; aspartame 25 mg/kg + OTA 289 μg/kg, 3 weeks): virtually complete disappearance of the DNA adducts; also recorded: comparable to those of the controls | nephrotoxic and genotoxic effects (overall conclusion) (DNA; results of the experiments performed): suppresses not only the nephrotoxic effects but also the genotoxic effects | oral dose of aspartame giving plasma concentration of 10 mg/l [8]: 400 to 600 mg
